SMILES strings stand for the structures.

The target of one assay is T1, h FPR2 (Homo sapiens, UniProt P25090).
T1 construct: expressed in transfected cells
T1 sequence (P25090 1-351): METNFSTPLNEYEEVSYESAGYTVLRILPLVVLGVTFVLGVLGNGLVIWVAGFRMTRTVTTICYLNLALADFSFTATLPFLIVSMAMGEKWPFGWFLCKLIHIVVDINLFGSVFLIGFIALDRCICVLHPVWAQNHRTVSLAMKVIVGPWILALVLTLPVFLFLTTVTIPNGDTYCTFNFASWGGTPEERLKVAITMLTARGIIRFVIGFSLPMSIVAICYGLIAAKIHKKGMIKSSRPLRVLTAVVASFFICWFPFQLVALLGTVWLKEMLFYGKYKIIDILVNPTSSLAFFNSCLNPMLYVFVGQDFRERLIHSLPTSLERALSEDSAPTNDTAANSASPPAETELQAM
As to the kind of experiment: Agonistic activity in hFPR2-Aq-CHO cells (FLIPR Calcium 5 fluorescence assay). The class given is cell-based. The note with it: 11 point half log dilution, final assay concentration from 10µM. The method, boiled down: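 EC50 reflects the compound-evoked rise in Calcium 5 fluorescence over basal, recorded for 5 min on FLIPR and compared with no-compound wells. Dye-loaded hFPR2-Aq-CHO cells received half-log dilutions from 10 µM to 100 pM final in pH 7.4 HBSS buffer.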
On to `COc1ccc([C@@H]2CN(C(=O)c3ccc(C)nc3)CC[C@H]2NC(=O)Nc2ccc(Cl)cc2)nc1` (single isomer, unassigned) [Ex-54, trans-1-(4-chlorophenyl)-3-[3-(5-methoxypyridin-2-yl)-1-[(6-methylpyridin-3-yl)carbonyl]piperidin-4-yl]urea], for which the EC50 (commonly the concentration needed to bring the measured effect to its halfway point) worked out at 0.6 nM. As to `O=C(Nc1ccc(Cl)cc1)N[C@@H]1CCN(Cc2ncccn2)C[C@H]1c1ccc(Cl)s1` (single isomer, unassigned) [Ex-47, trans-1-(4-chlorophenyl)-3-[3-(5-chlorothiophen-2-yl)-1-(pyrimidin-2-ylmethyl)piperidin-4-yl]urea], the EC50 was 65 nM. Same read-out and setting: the same measure for `COc1ccc([C@@H]2CN(C3COC3)CC[C@H]2NC(=O)Nc2ccc(Cl)cc2)nc1` (relative stereo) [Ex-108, trans-1-(4-chloro-phenyl)-3-(5-methoxy-1'-oxetan-3-yl-1',2',3',4',5',6'-hexahydro-[2,3']bipyridinyl-4'-yl)-urea]: 7 nM; for `COc1ccc([C@@H]2CN(C(=O)c3cnccc3C)CC[C@H]2NC(=O)Nc2ccc(Cl)cc2)nc1` (single isomer, unassigned) [Ex-53, trans-1-(4-chlorophenyl)-3-[3-(5-methoxypyridin-2-yl)-1-[(4-methylpyridin-3-yl)carbonyl]piperidin-4-yl]urea]: 50 nM. Same read-out and setting: the same measure for `COc1ccc([C@@H]2CN(CCCO)CC[C@H]2NC(=O)Nc2ccccc2)nc1` (relative stereo) [Ex-159, trans-1-[1-(3-Hydroxy-propyl)-3-(5-methoxy-pyridin-2-yl)-piperidin-4-yl]-3-phenyl-urea]: 57 nM.

Regarding `COc1ccc([C@@H]2CN(CC3COC3)CC[C@H]2NC(=O)Nc2ccccc2)nc1` (relative stereo) [Ex-161, trans-1-[3-(5-Methoxy-pyridin-2-yl)-1-(oxetan-3-yl-methyl)-piperidin-4-yl]-3-phenyl-urea], the EC50 is 28 nM.

Turning to `COc1cnc([C@@H]2CN(CCCO)CC[C@H]2NC(=O)Nc2ccc(Cl)cc2)c(F)c1` (relative stereo) [Ex-197, trans-1-(4-chloro-phenyl)-3-[3-fluoro-1'-(3-hydroxy-propyl)-5-methoxy-1',2',3',4',5',6'-hexahydro-[2,3']bipyridinyl-4'-yl]-urea], the EC50 was found to be 0.9 nM.

In the case of `COc1ccc([C@@H]2CN(C(=O)c3ccc(C)nc3)CC[C@H]2NC(=O)Nc2ccc(Cl)cc2)nc1` (single isomer, unassigned) [Ex-55, trans-1-(4-chlorophenyl)-3-[3-(5-methoxypyridin-2-yl)-1-[(6-methylpyridin-3-yl)carbonyl]piperidin-4-yl]urea], the EC50 was found to be 40 nM.

Regarding `COc1ccc([C@@H]2CN(CC(C)(C)O)CC[C@H]2NC(=O)Nc2ccc(Cl)cc2)nc1` (single isomer, unassigned) [Ex-179, trans-1-(4-Chlorophenyl)-3-[1-(2-hydroxy-2-methyl-propyl)-3-(5-methoxy-pyridin-2-yl)-piperidin-4-yl]-urea], the EC50 was 0.7 nM. Turning to `Cc1cc(CN2CC[C@@H](NC(=O)Nc3ccc(Cl)cc3)[C@H](c3ccc(Cl)s3)C2)no1` (single isomer, unassigned) [Ex-44, trans-1-(4-chlorophenyl)-3-[3-(5-chlorothiophen-2-yl)-1-[(5-methyl-1,2-oxazol-3-yl)methyl]piperidin-4-yl]urea], the EC50 is 1 nM. Same read-out and setting: under `CNC(=O)CN1CC[C@H](NC(=O)Nc2ccc(Cl)cc2)[C@@H](c2ccc(OC)cn2)C1` [Ex-215] stands 0.3 nM; under `COc1ccc([C@@H]2CN(CC3CCOCC3)CC[C@H]2NC(=O)Nc2ccc(Cl)cc2)nc1` (single isomer, unassigned) [Ex-51, trans-1-(4-chlorophenyl)-3-[3-(5-methoxypyridin-2-yl)-1-(oxan-4-ylmethyl)piperidin-4-yl]urea], 0.4 nM.

The assay is the same for the next values; noted with them: agonistic response at 0.1µM.
`O=C(Nc1ccccc1)N[C@@H]1CCN(CCO)C[C@H]1c1ccc(Cl)cn1` (relative stereo) [Ex-152, trans-1-[3-(5-Chloro-pyridin-2-yl)-1-(2-hydroxy-ethyl)-piperidin-4-yl]-3-phenyl-urea]: the activation at 0.1 µM was 25%.

(Values after patent EP3789378A1, “PIPERIDINES OR PIPERIDONES SUBSTITUTED WITH UREA AND HETEROARYL” (Grünenthal GmbH, priority 2019, dated 2021).)
